According to patent publication EP2271651B1, “ISOTHERMAL PROCESS FOR PHOSPHOROMONOCHLORIDITE SYNTHESIS” (Dow Global Technologies LLC, priority 2008, dated 2009):
Like-named read-outs stand apart in the source and are kept apart here.

Experiments:
[1] = Solubility of the aromatic diol in organic solvent (equilibrium solubility method); format: physicochemical; details: based on the weight of the solution
Description: The solubility of the aromatic diol in the organic solvent can be measured by using known procedures. For example, the solubility of the aromatic diol in the organic solvent at a specific temperature can be determined by an equilibrium solubility method, which employs a saturated solution of the aromatic diol, obtained by stirring an excess amount of the aromatic diol in the organic solvent at the specific temperature for a sufficient period of time until equilibrium is achieved. Thereafter, the resulting liquid phase saturated solution, the resulting solid phase, or both liquid and solid phases are analyzed by any conventional analytical method to arrive at the solubility of the aromatic diol in the organic solvent.
In this first embodiment, generally, the aromatic diol has a low solubility in the first organic solvent. […] Accordingly, this embodiment generally requires a) a large quantity of the first organic solvent to solubilize essentially all of the aromatic diol, and/or b) preparation and maintenance of the feed solution at an elevated temperature to increase and maintain solubility of the diol in the feed solution. […]

[2] = cited from earlier work; for HCl solubility: total pressure of 760 mm Hg (101 kPa)

Row | SMILES | HCl solubility ([2]; At 20°C) [Mol/mol organic solvent] | HCl solubility ([2]; At 10°C) [Mol/mol organic solvent] | also measured
1 | Oc1ccccc1-c1ccccc1O [2,2'-biphenol] |  |  | solubility in toluene ([1]; at 19°C): 2.7 percent by weight; solubility in toluene ([1]; at 40°C): 7.3 percent by weight
2 | Clc1ccccc1 [Chlorobenzene] | 0.033 |  | 
3 | C1CCOC1 [Tetrahydrofuran] |  |  | hydrogen chloride absorbed/dissolved by one mole of solvent ([2]; at 10°C and a total pressure of 760 mm Hg (101 kPa)): 1.38 mol
4 | Cc1cccc(C)c1 [m-Xylene] | 0.071 |  | 
5 | CCCCCCCCCC [n-Decane] |  | 0.028 | 
6 | CCCCCCC [n-Heptane] | 0.015 | 0.02 | 
7 | Cc1ccc(C)cc1 [p-Xylene] | 0.064 | 0.08 | 
